From patent publication US10688200B2, “Urea-based prostate specific membrane antigen (PSMA) inhibitors for imaging and therapy” (Five Eleven Pharma Inc., priority 2015, dated 2020)

Experiments:
[1] = system: PSMA-expressing LNCaP cells; experiment: Cell binding and internalization; type: cell-based, human; details: 37° C.
Method: The cellular uptake and internalization kinetics of the [^68Ga]1a, [^68Ga]5a and [^68Ga]5b were determined using PSMA-expressing LNCaP cells. Furthermore, to be able to discriminate between total cellular activity (sum of membrane-associated and internalized activity) and internalized activity, all incubations were followed by a washing step with mild acid at 4° C. to remove specifically cell-surface bound radioligand by displacement.
LNCaP cells (in 6-well plates in triplicates) were incubated in RPMI-1640 medium with [^68Ga]1a, [^68Ga]5a or [^68Ga]5b for 0-2 h at 37° C. At the indicated time, the medium was removed and the cells were washed twice and then incubated with a mild acid buffer (50 mM glycine, 150 mM NaCl, pH 3.0) at 4° C. for 5 min. The supernatant (containing cell surface-bound radioactivity) was pooled and the cell pellet (containing internalized radioactivity) was collected with filter paper and then radioactivity in supernatant and cell pellet was counted on a gamma counter.
LNCaP cells were incubated with [^68Ga]1a, [^68Ga]5a and [^68Ga]5b for up to 2 h at 37° C. to determine whether the compound is internalized by endocytosis. The cells were then washed with a mild acid buffer to remove extracellularly bound compound.
Non specific binding (NSB) was evaluated by blocking with 20 μM PMPA. Specificity of cell uptake (SB) was calculated by subtracting the respective signals resulting from PMPA blocking. Values are expressed as % of applied radioactivity bound to 10^6 cells.

[2] = system: LNCaP tumor bearing nude mice; experiment: Biodistribution of [68Ga]labeled ligand in PSMA positive tumor bearing nude mice; type: in vivo, mouse; details: 1 h post-injection, i.v., n = 3
Method: In a dish contained 5×10^6 cells of LNCaP in 50% Matrigel (Becton Dickinson, Heidelberg, Germany) were subcutaneously inoculated into the left shoulder of male 5- to 6-week-old CD-1 nu/nu mice (Charles River Laboratories). The tumors were allowed to grow for 8 weeks until approximately 0.5 cm^3 in size.
The ^68Ga-radiolabeled compounds were injected via tail vein (25 μCi per mouse; 0.1-0.2 nmol). At 1 h after injection, the animals were sacrificed. Organs of interest were dissected and weighed. The radioactivity was measured with a gamma counter and calculated as % ID/g.

[3] = Biodistribution of radiotracers in normal mice; type: in vivo, mouse; details: normal male mice
Summary of the method: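 Male CD-1 mice received 35 μCi [^68Ga] radiotracer (0.2 nmole ligand) by tail vein. Four mice per time point sacrificed at 2, 30, 60 and 120 min p.i.; organs and blood weighed and gamma counted. %ID/g calculated against a standard dilution of the dose, decay-corrected.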

[4] = system: LNCaP (left shoulder) and PC-3 (right shoulder) tumor bearing nude mouse; experiment: Small animal PET imaging with [68Ga]1a and [68Ga]4a; type: in vivo; details: 60 to 75 min after i.v. injection
Method: Male athymic mice (CD-1 nude, 5-6 weeks old) were obtained from Charles River, and were allowed to acclimatize at the vivarium for 1 week prior to implanting tumors. Mice were provided with food and water ad libitum. LNCaP tumors were induced on the left shoulder by sub-cutaneous (s.c.) injection of 5.0×10^6 cells in a 200 μL cell suspension of a 1:1 v/v mixture of media with reconstituted basement membrane (BD Matrigel™, Collaborative Biomedical Products Inc., Bedford, Mass.). Similarly, PC-3 tumors were induced on the right shoulder by s.c. injection of 2.0×10^6 cells. Palpable LNCaP tumors developed after a period of 4-5 weeks.
Dynamic small animal PET (APET) imaging studies of LNCaP (left shoulder) and PC-3 (right shoulder) tumor bearing nude mouse were performed with [^68Ga]1a and [^68Ga]4a. PET imaging studies were performed on a Phillips Mosaic small animal PET scanner, which has an imaging field of view of 11.5 cm. Under isoflurane anesthesia (1-2%, 1 L/min oxygen), the tumor-bearing nude mouse was injected with 0.5 mCi activity by an intravenous injection into the lateral tail vein. Data acquisition began at 30 min after the injection. Dynamic scans were conducted over a period of 1 h (5 min/frame; image voxel size 0.5 mm^3). Mouse was visually monitored for breathing, and a heating pad was used to maintain body temperature throughout the entire procedure. Images were reconstructed and a region of interest (ROI) analysis was performed using AMIDE software (http://amide.sourceforge.net/).
Representative animal PET images of LNCaP xenograft mice between 60 to 75 min after i.v. injection of [^68Ga]1a, and [^68Ga]4a are shown in FIGS. 3A-3F. […] FIGS. 3A-3F show sagittal, transaxial and coronal sections of APET images of nude mouse with LNCaP tumor at left shoulder and PC-3 tumor at right shoulder between 60 to 75 min post i.v. injection of [^68Ga]1a (FIGS. 3A-3C) and [^68Ga]4a (FIG. 3D-3F).

Structure (SMILES): O=C(O)CCc1ccc2c(c1)C[N+]13CC[N+]45CC(=O)[O][68Ga-3]14([O]C(=O)C3)([O]2)[O]c1ccc(CCC(=O)NCCCCCC(=O)NCCCC[C@H](NC(=O)N[C@@H](CCC(=O)O)C(=O)O)C(=O)O)cc1C5 (stereo partly shown) [[^68Ga]1a, reference compound]
- Cell surface binding activity ([1]; 5 min): 3.21 ± 0.74 % ID/10^6 cells
- Internalized activity ([1]; 5 min): 0.49 ± 0.21 % ID/10^6 cells
- Cell surface binding activity ([1]; 15 min): 3.61 ± 0.47 % ID/10^6 cells
- Internalized activity ([1]; 15 min): 2.51 ± 0.19 % ID/10^6 cells
- Cell surface binding activity ([1]; 30 min): 2.95 ± 0.36 % ID/10^6 cells
- Internalized activity ([1]; 30 min): 4.30 ± 0.72 % ID/10^6 cells
- Cell surface binding activity ([1]; 60 min): 3.22 ± 0.81 % ID/10^6 cells
- Internalized activity ([1]; 60 min): 7.43 ± 1.27 % ID/10^6 cells
- Cell surface binding activity ([1]; 90 min): 3.41 ± 0.17 % ID/10^6 cells
- Internalized activity ([1]; 90 min): 8.34 ± 0.16 % ID/10^6 cells
- Cell surface binding activity ([1]; 120 min): 3.35 ± 0.04 % ID/10^6 cells
- Internalized activity ([1]; 120 min): 8.82 ± 0.45 % ID/10^6 cells
- Organ distribution: Blood [2]: 0.37 ± 0.07 % dose/g
- Organ distribution: Bone [2]: 0.21 ± 0.05 % dose/g
- Organ distribution: Brain [2]: 0.04 ± 0.01 % dose/g
- Organ distribution: Heart [2]: 0.59 ± 0.14 % dose/g
- Organ distribution: Kidney [2]: 176 ± 5.66 % dose/g
- Organ distribution: LNCaP tumor [2]: 10.07 ± 3.32 % dose/g
- Organ distribution: Liver [2]: 0.62 ± 0.24 % dose/g
- Organ distribution: Lung [2]: 2.44 ± 1.03 % dose/g
- Organ distribution: Muscle [2]: 0.58 ± 0.24 % dose/g
- Organ distribution: Pancreas [2]: 1.38 ± 0.63 % dose/g
- Organ distribution: Skin [2]: 1.14 ± 0.58 % dose/g
- Organ distribution: Spleen [2]: 18.48 ± 3.02 % dose/g
- Biodistribution: Blood ([3]; 2 min): 7.75 ± 1.60 % dose/g
- Biodistribution: Bone ([3]; 2 min): 1.77 ± 0.16 % dose/g
- Biodistribution: Brain ([3]; 2 min): 0.25 ± 0.02 % dose/g
- Biodistribution: Heart ([3]; 2 min): 3.32 ± 0.51 % dose/g
- Biodistribution: Kidney ([3]; 2 min): 40.5 ± 7.81 % dose/g
- Biodistribution: Liver ([3]; 2 min): 11.0 ± 0.99 % dose/g
- Biodistribution: Lung ([3]; 2 min): 5.29 ± 0.82 % dose/g
- Biodistribution: Muscle ([3]; 2 min): 1.68 ± 0.20 % dose/g
- Biodistribution: Pancreas ([3]; 2 min): 1.91 ± 0.17 % dose/g
- Biodistribution: Skin ([3]; 2 min): 2.42 ± 0.38 % dose/g
- Biodistribution: Spleen ([3]; 2 min): 7.46 ± 0.84 % dose/g
- Biodistribution: Blood ([3]; 30 min): 0.54 ± 0.08 % dose/g
- Biodistribution: Bone ([3]; 30 min): 0.24 ± 0.08 % dose/g
- Biodistribution: Brain ([3]; 30 min): 0.03 ± 0.00 % dose/g
- Biodistribution: Heart ([3]; 30 min): 0.27 ± 0.09 % dose/g
- Biodistribution: Kidney ([3]; 30 min): 108 ± 23.7 % dose/g
- Biodistribution: Liver ([3]; 30 min): 0.35 ± 0.03 % dose/g
- Biodistribution: Lung ([3]; 30 min): 1.14 ± 0.17 % dose/g
- Biodistribution: Muscle ([3]; 30 min): 0.32 ± 0.01 % dose/g
- Biodistribution: Pancreas ([3]; 30 min): 0.76 ± 0.11 % dose/g
- Biodistribution: Skin ([3]; 30 min): 0.95 ± 0.20 % dose/g
- Biodistribution: Spleen ([3]; 30 min): 2.95 ± 0.36 % dose/g
- Biodistribution: Blood ([3]; 60 min): 0.33 ± 0.07 % dose/g
- Biodistribution: Bone ([3]; 60 min): 0.23 ± 0.02 % dose/g
- Biodistribution: Brain ([3]; 60 min): 0.02 ± 0.00 % dose/g
- Biodistribution: Heart ([3]; 60 min): 0.34 ± 0.07 % dose/g
- Biodistribution: Kidney ([3]; 60 min): 91.1 ± 11.6 % dose/g
- Biodistribution: Liver ([3]; 60 min): 6.09 ± 0.86 % dose/g
- Biodistribution: Lung ([3]; 60 min): 0.93 ± 0.14 % dose/g
- Biodistribution: Muscle ([3]; 60 min): 0.19 ± 0.02 % dose/g
- Biodistribution: Pancreas ([3]; 60 min): 0.59 ± 0.10 % dose/g
- Biodistribution: Skin ([3]; 60 min): 0.44 ± 0.05 % dose/g
- Biodistribution: Spleen ([3]; 60 min): 4.39 ± 0.42 % dose/g
- Biodistribution: Blood ([3]; 120 min): 0.12 ± 0.03 % dose/g
- Biodistribution: Bone ([3]; 120 min): 0.21 ± 0.05 % dose/g
- Biodistribution: Brain ([3]; 120 min): 0.01 ± 0.00 % dose/g
- Biodistribution: Heart ([3]; 120 min): 0.23 ± 0.19 % dose/g
- Biodistribution: Kidney ([3]; 120 min): 83.9 ± 13.6 % dose/g
- Biodistribution: Liver ([3]; 120 min): 2.56 ± 0.80 % dose/g
- Biodistribution: Lung ([3]; 120 min): 0.77 ± 0.17 % dose/g
- Biodistribution: Muscle ([3]; 120 min): 0.12 ± 0.03 % dose/g
- Biodistribution: Pancreas ([3]; 120 min): 0.64 ± 0.23 % dose/g
- Biodistribution: Skin ([3]; 120 min): 0.31 ± 0.12 % dose/g
- Biodistribution: Spleen ([3]; 120 min): 5.07 ± 2.68 % dose/g
- LNCaP tumor visualization in PET images, in words [4]: clearly visualized
- PC-3 (PSMA negative) tumor uptake in PET images, in words [4]: did not show any uptakes
